Active and inactive are the calls of the source.
Experiments:
[1] = target: T1, Adenosylmethionine-8-amino-7-oxononanoate aminotransferase (Mycobacterium tuberculosis, UniProt P9WQ81); assay: Mycobacterium tuberculosis BioA enzyme inhibitor Measured in Biochemical System Using Plate Reader - 2163-02_Inhibitor_Dose_CherryPick_Activity.; type: functional, Mycobacterium tuberculosis UT205
T1 sequence (P9WQ81 whole entry): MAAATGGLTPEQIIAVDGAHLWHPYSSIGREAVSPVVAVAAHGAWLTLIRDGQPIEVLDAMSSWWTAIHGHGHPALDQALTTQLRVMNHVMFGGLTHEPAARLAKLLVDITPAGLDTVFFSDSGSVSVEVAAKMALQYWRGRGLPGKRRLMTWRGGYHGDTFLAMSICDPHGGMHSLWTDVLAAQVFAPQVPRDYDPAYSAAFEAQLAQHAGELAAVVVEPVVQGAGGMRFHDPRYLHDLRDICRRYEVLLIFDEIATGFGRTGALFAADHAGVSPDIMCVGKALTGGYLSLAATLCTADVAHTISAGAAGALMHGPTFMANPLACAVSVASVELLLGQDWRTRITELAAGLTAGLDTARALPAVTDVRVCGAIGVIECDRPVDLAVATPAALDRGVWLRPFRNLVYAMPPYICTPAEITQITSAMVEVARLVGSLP

[2] = target: 26S proteasome non-ATPase regulatory subunit 14 (Homo sapiens, UniProt O00487); assay: inhibition of proteasome subunit RPN11 – biochemical, fluorescence polarization, uHTS hits, confirmation (AID 602368); type: functional
26S proteasome non-ATPase regulatory subunit 14, sequence (O00487 whole entry): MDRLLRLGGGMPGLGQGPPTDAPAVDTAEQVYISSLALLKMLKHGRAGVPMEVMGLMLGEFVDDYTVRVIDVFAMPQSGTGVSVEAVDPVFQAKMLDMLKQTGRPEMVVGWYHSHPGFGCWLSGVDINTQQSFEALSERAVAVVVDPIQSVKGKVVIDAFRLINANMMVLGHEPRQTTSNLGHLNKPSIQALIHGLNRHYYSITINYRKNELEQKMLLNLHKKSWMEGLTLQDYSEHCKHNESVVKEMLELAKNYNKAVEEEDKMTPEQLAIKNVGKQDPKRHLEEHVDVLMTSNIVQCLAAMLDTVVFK

Prothrombin = Prothrombin (Bos taurus, UniProt P00735); assay: thrombin inhibition, dose response, biochemical, fluorescence polarization, uHTS hits (AID 602369); type: functional
[3] = target: 72 kDa type IV collagenase (Homo sapiens, UniProt P08253); assay: Dose Response validation of uHTS RPN11 inhibitor hits using a MMP-2 Fluorescence assay.; type: functional
72 kDa type IV collagenase, sequence (P08253 whole entry): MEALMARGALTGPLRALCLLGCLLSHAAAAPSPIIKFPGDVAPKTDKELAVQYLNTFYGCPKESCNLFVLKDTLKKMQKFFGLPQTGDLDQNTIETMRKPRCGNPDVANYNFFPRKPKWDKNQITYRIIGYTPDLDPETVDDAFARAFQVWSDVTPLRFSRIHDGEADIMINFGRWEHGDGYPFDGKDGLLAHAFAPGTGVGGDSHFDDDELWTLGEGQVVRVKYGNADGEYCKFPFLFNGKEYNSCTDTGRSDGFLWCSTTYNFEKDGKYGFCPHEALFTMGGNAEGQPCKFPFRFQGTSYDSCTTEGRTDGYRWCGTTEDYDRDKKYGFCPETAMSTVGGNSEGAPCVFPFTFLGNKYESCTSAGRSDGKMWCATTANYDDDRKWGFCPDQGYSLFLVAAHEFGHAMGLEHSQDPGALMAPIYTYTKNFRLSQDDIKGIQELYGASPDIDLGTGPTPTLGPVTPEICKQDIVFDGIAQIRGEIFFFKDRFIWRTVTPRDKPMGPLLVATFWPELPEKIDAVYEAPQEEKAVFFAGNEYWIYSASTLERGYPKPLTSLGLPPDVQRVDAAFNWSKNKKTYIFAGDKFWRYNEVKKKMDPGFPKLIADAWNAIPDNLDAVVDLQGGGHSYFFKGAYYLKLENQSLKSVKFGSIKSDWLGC

[4] = HepG2 cell cytotoxicity, dose response, cytotoxicity control for Shn3 inhibitor project, CellTiter-Glo, cherry-picked (AID 624134); type: functional, cell-based
[5] = Shn3 3'UTR reporter inhibitors, dose response, cell-based, Clone20 osteoblasts, firefly luciferase, cherry-picked (AID 624132); type: functional;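 further: firefly luciferase luminescence from reporter carrying the Shn3 3'UTR in osteoblasts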
Protein Wnt-3a = Protein Wnt-3a (Mus musculus, UniProt P27467); assay: Wnt3a-driven reporter signaling inhibition, dose response, selectivity assay for Gli-SUFU antagonist project, Wnt-LIGHT cells, luminescence (AID 651570); type: functional; settings: read-out: IC50_Mean;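 further: Wnt-LIGHT reporter cells stimulated with conditioned medium from Wnt3a-producing cells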
Protein Wnt-3a, sequence (P27467 whole entry): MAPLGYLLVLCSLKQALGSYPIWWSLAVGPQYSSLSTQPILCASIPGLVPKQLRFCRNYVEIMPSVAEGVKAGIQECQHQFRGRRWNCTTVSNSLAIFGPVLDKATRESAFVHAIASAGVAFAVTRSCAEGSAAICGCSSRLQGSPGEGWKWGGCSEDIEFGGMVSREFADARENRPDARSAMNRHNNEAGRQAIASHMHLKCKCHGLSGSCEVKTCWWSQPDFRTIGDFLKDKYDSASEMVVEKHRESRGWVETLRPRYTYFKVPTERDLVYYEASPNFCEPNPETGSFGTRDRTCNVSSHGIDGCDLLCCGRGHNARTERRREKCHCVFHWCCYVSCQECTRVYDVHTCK

[6] = control 3'UTR Renilla luciferase suppression, dose response, counter-screen for Shn3 inhibitor project, cell-based, Clone20-Shn3RL, cherry-picked (AID 624133); type: functional
[7] = target: T2, Probable nicotinate-nucleotide adenylyltransferase (Staphylococcus aureus (strain N315), UniProt P65502); type: functional, Staphylococcus aureus subsp. aureus N315; settings: read-out: IC50_Mean;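 on IC50 Mean: confirmatory dose-response retesting of NadD inhibitor hits first found in an ultra-high-throughput screen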
T2 sequence (P65502 whole entry): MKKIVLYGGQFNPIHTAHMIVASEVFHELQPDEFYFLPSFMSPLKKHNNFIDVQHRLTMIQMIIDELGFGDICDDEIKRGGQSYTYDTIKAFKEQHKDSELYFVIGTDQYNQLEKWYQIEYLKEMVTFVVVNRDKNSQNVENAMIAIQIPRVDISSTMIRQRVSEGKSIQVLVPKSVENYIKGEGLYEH

[8] = target: T2, Probable nicotinate-nucleotide adenylyltransferase; type: functional, Staphylococcus aureus subsp. aureus N315
[9] = target: Induced myeloid leukemia cell differentiation protein Mcl-1 (Homo sapiens, UniProt Q07820); type: functional
Induced myeloid leukemia cell differentiation protein Mcl-1, sequence (Q07820 whole entry): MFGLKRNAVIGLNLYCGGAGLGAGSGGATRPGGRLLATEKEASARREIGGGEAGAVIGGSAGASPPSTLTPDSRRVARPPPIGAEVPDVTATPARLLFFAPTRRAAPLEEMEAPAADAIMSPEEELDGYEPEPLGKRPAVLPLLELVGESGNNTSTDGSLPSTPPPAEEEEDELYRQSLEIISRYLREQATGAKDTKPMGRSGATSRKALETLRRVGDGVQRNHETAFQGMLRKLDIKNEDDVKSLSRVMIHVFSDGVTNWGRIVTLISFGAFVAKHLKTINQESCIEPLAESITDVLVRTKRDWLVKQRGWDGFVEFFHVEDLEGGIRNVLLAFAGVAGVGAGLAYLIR

[10] = target: T3, Sentrin-specific protease 8 (Homo sapiens, UniProt Q96LD8); type: functional;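 further: luminescence read-out of SENP8 inhibition, dose-response confirmation following an ultra-high-throughput screen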
T3 sequence (Q96LD8 whole entry): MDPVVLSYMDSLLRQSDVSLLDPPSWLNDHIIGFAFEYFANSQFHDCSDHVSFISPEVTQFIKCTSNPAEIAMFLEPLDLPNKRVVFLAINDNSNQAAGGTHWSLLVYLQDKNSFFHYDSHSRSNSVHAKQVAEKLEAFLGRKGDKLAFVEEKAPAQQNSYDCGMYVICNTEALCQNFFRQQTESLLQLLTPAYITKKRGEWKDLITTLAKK

[11] = target: T4, Sentrin-specific protease 6 (Homo sapiens, UniProt Q9GZR1); type: functional;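 further: Luminescence-based dose-response confirmatory assay of SENP6 inhibition, following up an ultra-high-throughput screen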
T4 sequence (Q9GZR1 whole entry): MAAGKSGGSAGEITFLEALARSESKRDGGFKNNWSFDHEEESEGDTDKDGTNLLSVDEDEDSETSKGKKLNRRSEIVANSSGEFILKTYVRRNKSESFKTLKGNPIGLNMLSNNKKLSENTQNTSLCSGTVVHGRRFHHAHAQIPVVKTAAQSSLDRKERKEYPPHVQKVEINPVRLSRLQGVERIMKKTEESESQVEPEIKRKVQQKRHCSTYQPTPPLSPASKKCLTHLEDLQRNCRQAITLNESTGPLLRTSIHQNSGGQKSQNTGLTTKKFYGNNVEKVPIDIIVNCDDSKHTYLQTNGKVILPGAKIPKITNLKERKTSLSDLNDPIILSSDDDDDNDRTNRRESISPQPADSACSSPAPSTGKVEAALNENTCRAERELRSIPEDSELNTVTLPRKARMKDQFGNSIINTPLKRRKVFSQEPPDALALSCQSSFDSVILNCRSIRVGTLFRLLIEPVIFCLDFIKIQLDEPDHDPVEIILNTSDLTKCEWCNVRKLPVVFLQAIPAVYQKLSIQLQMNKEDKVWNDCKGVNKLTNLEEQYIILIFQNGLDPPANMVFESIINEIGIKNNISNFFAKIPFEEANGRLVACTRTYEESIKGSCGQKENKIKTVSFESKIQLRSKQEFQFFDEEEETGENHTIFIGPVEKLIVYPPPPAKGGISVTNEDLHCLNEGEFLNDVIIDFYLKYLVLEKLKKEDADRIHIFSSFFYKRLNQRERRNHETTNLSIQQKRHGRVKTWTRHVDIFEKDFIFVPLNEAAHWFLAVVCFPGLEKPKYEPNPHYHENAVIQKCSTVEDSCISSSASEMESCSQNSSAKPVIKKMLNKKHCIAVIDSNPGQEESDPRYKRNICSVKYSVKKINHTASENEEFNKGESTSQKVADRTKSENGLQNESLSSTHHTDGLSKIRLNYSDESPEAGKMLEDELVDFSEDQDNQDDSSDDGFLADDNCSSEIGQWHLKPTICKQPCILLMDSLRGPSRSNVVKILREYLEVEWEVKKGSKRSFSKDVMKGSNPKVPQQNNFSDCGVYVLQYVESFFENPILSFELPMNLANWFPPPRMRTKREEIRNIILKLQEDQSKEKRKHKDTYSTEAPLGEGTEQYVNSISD

Caspase-3 = target: T5, Caspase-3 (Homo sapiens, UniProt P42574); type: functional;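 further: Dose-response selectivity test against caspase-3 for candidate inhibitors of sentrin-specific proteases (SENPs)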
T5 sequence (P42574 whole entry): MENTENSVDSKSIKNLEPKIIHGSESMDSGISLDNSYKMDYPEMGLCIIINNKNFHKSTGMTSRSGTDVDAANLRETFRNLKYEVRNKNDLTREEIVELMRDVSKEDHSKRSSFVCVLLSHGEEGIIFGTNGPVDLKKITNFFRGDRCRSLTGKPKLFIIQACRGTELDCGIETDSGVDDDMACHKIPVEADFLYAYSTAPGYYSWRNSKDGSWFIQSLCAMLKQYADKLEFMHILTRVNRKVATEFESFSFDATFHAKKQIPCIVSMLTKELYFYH

[12] = target: T6, Sentrin-specific protease 7 (Homo sapiens, UniProt Q9BQF6); type: functional;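 further: Luminescence-based dose-response confirmation of ultra-high-throughput screening hits, measuring inhibition of SENP7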
T6 sequence (Q9BQF6 whole entry): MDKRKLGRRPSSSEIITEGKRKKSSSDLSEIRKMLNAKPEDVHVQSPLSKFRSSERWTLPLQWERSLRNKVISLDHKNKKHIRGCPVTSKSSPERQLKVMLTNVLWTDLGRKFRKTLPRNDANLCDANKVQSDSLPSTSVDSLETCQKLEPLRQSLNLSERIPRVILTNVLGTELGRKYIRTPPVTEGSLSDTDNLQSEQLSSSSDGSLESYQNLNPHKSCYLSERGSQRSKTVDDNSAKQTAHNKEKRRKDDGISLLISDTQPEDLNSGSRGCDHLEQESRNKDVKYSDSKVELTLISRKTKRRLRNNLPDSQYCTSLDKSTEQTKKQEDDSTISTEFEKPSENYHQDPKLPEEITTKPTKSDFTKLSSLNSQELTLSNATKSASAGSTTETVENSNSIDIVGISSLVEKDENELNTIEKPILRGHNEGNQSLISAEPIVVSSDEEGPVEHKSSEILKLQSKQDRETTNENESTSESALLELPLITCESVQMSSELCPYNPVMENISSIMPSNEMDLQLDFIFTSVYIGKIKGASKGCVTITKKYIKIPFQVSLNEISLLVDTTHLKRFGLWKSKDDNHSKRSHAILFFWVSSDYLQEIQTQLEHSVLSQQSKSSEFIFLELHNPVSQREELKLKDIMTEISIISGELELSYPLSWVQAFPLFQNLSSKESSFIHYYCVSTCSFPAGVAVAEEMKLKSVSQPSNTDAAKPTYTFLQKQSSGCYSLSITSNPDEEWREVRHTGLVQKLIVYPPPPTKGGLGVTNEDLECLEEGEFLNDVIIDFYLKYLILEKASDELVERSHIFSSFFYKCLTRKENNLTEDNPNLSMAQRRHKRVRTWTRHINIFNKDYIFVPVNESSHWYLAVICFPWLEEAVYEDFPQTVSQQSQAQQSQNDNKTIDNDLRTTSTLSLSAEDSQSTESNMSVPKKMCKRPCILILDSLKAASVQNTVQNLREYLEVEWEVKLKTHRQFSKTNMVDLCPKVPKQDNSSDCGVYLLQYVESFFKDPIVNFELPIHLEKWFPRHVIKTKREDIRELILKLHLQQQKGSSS

Beta-lactamase [13] = target: Beta-lactamase (Salmonella choleraesuis (strain SC-B67), UniProt Q5J463); assay: Epi-absorbance-based counterscreen for selective VIM-2 inhibitors: dose response biochemical high throughput screening assay to identify inhibitors of TEM-1 serine-beta-lactamase.
Beta-lactamase (Salmonella choleraesuis (strain SC-B67), UniProt Q5J463), sequence (Q5J463 whole entry): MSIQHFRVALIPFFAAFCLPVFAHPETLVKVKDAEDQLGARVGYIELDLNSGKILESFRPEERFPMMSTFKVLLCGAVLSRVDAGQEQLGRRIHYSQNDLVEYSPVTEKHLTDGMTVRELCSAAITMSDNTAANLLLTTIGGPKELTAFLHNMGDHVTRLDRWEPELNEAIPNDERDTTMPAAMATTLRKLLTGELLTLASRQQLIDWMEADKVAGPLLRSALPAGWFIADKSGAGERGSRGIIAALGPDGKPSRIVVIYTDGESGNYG

Beta-lactamase [14] = target: T7, Beta-lactamase (Pseudomonas aeruginosa, UniProt Q79MP6); assay: IMP-1 metallo-beta-lactamase inhibitors, dose response, selectivity assay for VIM-2 inhibitor project, biochemical, epi-absorbance (AID 1920)
T7 sequence (Q79MP6 whole entry): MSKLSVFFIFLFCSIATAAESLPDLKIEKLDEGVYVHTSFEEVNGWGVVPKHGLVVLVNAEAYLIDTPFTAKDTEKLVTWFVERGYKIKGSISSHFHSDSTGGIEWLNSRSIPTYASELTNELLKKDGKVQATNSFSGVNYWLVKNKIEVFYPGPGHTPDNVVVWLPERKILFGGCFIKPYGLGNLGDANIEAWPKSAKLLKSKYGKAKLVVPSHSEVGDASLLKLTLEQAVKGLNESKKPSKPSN

Beta-lactamase [15] = target: T7, Beta-lactamase; assay: […] counterscreen for selective VIM-2 inhibitors: dose response biochemical high throughput screening assay to identify inhibitors of IMP-1 metallo-beta-lactamase.
[16] = target: Protein-tyrosine kinase 2-beta (Homo sapiens, UniProt Q14289);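 further: potency of inhibitors of PYK2 kinase phosphorylation of poly-GT substrate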
Protein-tyrosine kinase 2-beta, sequence (Q14289 whole entry): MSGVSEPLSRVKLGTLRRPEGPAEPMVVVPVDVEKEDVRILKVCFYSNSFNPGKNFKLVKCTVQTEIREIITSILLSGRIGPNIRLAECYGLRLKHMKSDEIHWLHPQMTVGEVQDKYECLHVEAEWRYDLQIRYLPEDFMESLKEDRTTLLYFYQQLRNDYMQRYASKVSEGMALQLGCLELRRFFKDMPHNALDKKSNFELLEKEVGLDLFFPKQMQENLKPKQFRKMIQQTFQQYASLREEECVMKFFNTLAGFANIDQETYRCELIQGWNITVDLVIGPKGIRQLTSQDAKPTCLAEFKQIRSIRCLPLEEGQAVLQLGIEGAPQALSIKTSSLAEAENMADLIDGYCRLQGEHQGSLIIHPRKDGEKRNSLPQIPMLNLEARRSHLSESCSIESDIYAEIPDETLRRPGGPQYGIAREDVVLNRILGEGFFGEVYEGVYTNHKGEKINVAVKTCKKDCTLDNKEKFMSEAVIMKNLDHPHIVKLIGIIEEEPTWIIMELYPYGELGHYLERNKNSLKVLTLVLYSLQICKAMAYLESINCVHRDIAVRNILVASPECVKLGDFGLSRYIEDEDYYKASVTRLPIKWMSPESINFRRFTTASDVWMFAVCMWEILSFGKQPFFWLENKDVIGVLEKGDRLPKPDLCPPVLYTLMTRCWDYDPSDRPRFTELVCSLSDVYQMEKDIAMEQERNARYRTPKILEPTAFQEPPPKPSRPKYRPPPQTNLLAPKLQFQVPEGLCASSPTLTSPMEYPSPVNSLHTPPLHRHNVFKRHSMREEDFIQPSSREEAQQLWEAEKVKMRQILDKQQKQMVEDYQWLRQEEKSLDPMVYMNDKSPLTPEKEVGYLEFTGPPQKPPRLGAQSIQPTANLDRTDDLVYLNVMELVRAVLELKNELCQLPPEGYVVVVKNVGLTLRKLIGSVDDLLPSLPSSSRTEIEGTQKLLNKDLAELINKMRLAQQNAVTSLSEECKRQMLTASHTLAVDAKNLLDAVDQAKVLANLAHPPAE

[17] = HEp-2 cell cytotoxicity, dose response, cytotoxicity control for RSV inhibitor project, HTS (AID 2410); type: functional; settings: human respiratory syncytial virus
Cytochrome P450 2C9 = Cytochrome P450 2C9 (Homo sapiens, UniProt P11712)
Cytochrome P450 2C9, sequence (P11712 whole entry): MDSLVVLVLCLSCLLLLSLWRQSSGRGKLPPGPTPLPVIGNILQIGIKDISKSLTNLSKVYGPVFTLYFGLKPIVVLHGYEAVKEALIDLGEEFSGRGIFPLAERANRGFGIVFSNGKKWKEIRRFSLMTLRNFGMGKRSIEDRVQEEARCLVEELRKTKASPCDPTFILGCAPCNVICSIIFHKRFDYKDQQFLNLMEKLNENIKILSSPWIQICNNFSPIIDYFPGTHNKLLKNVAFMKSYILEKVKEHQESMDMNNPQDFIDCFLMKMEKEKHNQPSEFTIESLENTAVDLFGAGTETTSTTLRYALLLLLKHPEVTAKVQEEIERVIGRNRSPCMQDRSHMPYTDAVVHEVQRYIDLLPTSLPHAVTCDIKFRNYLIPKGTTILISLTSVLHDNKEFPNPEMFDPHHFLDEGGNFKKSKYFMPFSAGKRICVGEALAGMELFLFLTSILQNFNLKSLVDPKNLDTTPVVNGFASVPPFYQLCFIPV

Cytochrome P450 3A4 = Cytochrome P450 3A4 (Homo sapiens, UniProt P08684);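 further: CYP3A4 tested as one member of a cytochrome P450 panel screen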
Cytochrome P450 3A4, sequence (P08684 whole entry): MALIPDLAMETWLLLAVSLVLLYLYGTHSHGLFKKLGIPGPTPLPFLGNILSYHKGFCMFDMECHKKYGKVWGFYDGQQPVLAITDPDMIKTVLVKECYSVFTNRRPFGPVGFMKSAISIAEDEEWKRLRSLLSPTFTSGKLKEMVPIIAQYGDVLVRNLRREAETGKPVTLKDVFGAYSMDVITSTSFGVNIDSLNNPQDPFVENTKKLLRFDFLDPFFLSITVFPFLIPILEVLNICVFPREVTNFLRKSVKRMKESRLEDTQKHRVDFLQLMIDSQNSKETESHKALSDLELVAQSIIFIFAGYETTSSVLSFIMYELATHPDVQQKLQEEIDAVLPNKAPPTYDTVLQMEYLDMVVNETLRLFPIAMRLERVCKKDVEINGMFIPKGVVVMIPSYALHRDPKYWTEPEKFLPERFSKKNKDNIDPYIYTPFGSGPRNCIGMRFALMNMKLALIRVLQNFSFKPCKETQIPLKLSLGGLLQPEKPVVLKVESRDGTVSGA

Cytochrome P450 2C19 = Cytochrome P450 2C19 (Homo sapiens, UniProt P33261); assay: Cytochrome panel assay with activity outcomes. Panel member name: p450-cyp2c19 Compounds with AC50 equal or less than 10 uM are considered active; type: functional; settings: read-out: AC50
Cytochrome P450 2C19, sequence (P33261 whole entry): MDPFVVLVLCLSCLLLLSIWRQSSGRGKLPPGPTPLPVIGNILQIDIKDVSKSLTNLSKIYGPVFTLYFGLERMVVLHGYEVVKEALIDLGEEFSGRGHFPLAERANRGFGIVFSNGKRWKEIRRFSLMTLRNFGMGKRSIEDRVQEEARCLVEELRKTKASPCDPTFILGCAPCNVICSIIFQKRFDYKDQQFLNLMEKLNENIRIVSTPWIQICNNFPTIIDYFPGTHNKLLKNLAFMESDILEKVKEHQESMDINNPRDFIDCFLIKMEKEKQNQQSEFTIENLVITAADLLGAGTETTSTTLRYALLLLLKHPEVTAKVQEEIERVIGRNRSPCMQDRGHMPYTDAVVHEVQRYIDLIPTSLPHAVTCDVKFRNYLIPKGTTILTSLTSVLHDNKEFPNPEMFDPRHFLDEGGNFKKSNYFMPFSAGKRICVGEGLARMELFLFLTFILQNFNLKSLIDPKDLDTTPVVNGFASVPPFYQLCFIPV

O=C(Nc1ccc2c(c1)[C@H]1C[C@@H](CC(=O)N3CCc4ccccc4C3)O[C@H](CO)[C@H]1O2)c1cccnc1
AC50 [1]: 6.24 µM (active)

CC1=CC2=NC(=O)/C(=C\c3c(C)[nH]c4ccc(C)cc34)C(=N)N2O1
IC50 [2]: 33.3 µM (active)
IC50 (Prothrombin): 32.1 µM (active)
IC50 [3]: > 100 µM (inactive)

O=C(C[C@@H]1C[C@@H]2c3cc(NC(=O)c4cccnc4)ccc3O[C@@H]2[C@@H](CO)O1)NCc1cccc(F)c1
AC50 [1]: 5.98 µM (active)

CCc1nc(N)nc(N)c1-c1ccc(N(C)Cc2ccccc2)c([N+](=O)[O-])c1
AC50 [4]: < 0.26 µM (active)
AC50 [5]: < 0.26 µM (active)
IC50 (Protein Wnt-3a): 5.28 µM (active)

C=CCOc1nc2c(c(=O)n(C)c(=O)n2C)n1Cc1ccc(Cl)cc1Cl
AC50 [6]: 7.4 µM (active)
AC50 [5]: 2.15 µM (active)
IC50 (Protein Wnt-3a): 29.7 µM (inactive)

O=C(c1ccc2c(=O)n(Cc3ccco3)c(=S)[nH]c2c1)N1CCN(Cc2ccccc2)CC1
IC50 [7]: 57.7 µM (active)
IC50 [8]: 23.5 µM (active)

Cc1cccc(C(=O)NC2CCN(CC(=O)Nc3ccccc3Cl)CC2)c1
AC50 [1]: 1.04 µM (active)

COc1ccc(C2=NN(c3nc(-c4ccccc4)c(CC(=O)O)s3)C(c3ccco3)C2)cc1 (centres undefined)
IC50 [7]: 18.5 µM (active)
IC50 [9]: 6.5 µM (active)
IC50 [8]: 8.39 µM (active)

CCOC(=O)c1ccc(NC(=O)c2cc3ccccc3o2)cc1
IC50 [10]: > 100 µM (inactive)
IC50 [11]: 7.74 µM (active)
IC50 (Caspase-3): 23.7 µM (active)
IC50 [12]: 5.71 µM (active)

Cc1ccc(NC(=O)C(C)SCc2nc(O)c3c4c(sc3n2)CCCC4)nc1 (centres undefined)
IC50 [2]: 21.9 µM (active)
IC50 (Prothrombin): 17.2 µM (active)
IC50 [3]: > 100 µM (inactive)

S=c1[nH]nc(-c2ccccc2)n1CC1CCCO1 (centres undefined)
IC50 (Beta-lactamase [13]): > 59.6 µM (inactive)
IC50 (Beta-lactamase [14]): > 59.6 µM (inactive)
IC50 (Beta-lactamase [15]): > 59.6 µM (inactive)

CSC[C@H](NC(=O)COc1cc2c(c3oc(=O)c(C)c(C)c13)CCC(C)(C)O2)C(=O)O
IC50 (Beta-lactamase [13]): > 59.6 µM (inactive)
IC50 (Beta-lactamase [14]): > 59.6 µM (inactive)
IC50 (Beta-lactamase [15]): > 59.6 µM (inactive)

C=C(c1cccc2ccccc12)P(=O)(O)O
IC50 (Beta-lactamase [13]): > 59.6 µM (inactive)
IC50 (Beta-lactamase [14]): > 59.6 µM (inactive)
IC50 (Beta-lactamase [15]): > 59.6 µM (inactive)
IC50 [16]: 27 µM (not active)

CCOC(=O)c1c(NC(=O)COc2ncnc3ccccc23)sc(C(C)=O)c1C
IC50 (Protein Wnt-3a): 6.86 µM (active)

Cc1ccc([N+](=O)[O-])cc1S(=O)(=O)Nc1cccc(-c2ccc(N3CCCC3)nn2)c1
IC50 [7]: 39.2 µM (active)
CC50 [17]: 23 µM (active)
IC50 [8]: 17.7 µM (active)

Cc1cc(/C=C2\SC(=S)NC2=O)c(C)n1C
IC50 [2]: 16.5 µM (active)
AC50 (Cytochrome P450 2C9): 1.26 µM (inconclusive)
AC50 (Cytochrome P450 3A4): 25.1 µM (inconclusive)
IC50 (Prothrombin): 19.4 µM (active)
AC50 (Cytochrome P450 2C19): 39.8 µM (inconclusive)
IC50 [3]: 15.2 µM (active)
